The structures appear in SMILES notation. A value given as a limit tells only on which side of the number the result lay.

As a reminder, the melting point is the temperature, or range, at which the solid turns liquid.

`COC(=O)c1ccc(Cl)cc1NC(=O)Cc1ccsc1`: the melting point was 96 to 97 °C.

Take `NCC(O)COc1cccc(Cl)c1` (stereo unspecified): the melting point was 55 to 58 °C.

`CNc1nnc(-c2cc(C(C)(C)C)c(O)c(C(C)(C)C)c2)s1`: the melting point amounted to 208 °C.

`O=C(O)Cn1c(=O)c(=O)[nH]c2ccc3ccc(-n4cccc4CNC(=O)c4ccccc4)cc3c21`: the melting point is > 180 °C.

`COc1ccccc1CCC1CNC(=O)O1` (stereo unspecified) displayed a melting point of 76 to 77 °C.

As for `Cc1c(NC(=O)c2ccc(OC[C@@H]3CCCO3)cc2)ccc2cc(CNCC(C)(C)C)[nH]c12`, the melting point was 168 °C.

In the case of `O=C1c2ccccc2C(=O)C1c1cccc(O)c1`, the melting point lay in the range of 139 to 141 °C.

The compound `COc1ccc(Cn2c(=O)[nH]c3ncccc3c2=O)cc1` displayed a melting point of 272 to 273 °C.

`CS(=O)CC(=NC1CCCCC1)c1ccccc1O` (stereo unspecified) yielded a melting point of 133 to 134 °C.

In the case of `O=C(Nc1cccc(C(F)(F)F)c1)c1ccccc1[N+](=O)[O-]`, the melting point lay within 134 to 135 °C.

`Cn1c(C(F)(F)F)cc(F)c(-c2ccc(Cl)cc2)c1=O` showed a melting point of 120 to 122 °C.

Turning to `CC(=O)c1ccc2c(c1)[C@@H](O)[C@H](Br)C(C)(C)O2` (relative stereo), the melting point is 84 to 86 °C.

In the case of `CCCc1c(OCCCCCCc2cccc(OCCCCCC(=O)O)c2CCC(=O)O)ccc2c1OCCC2=O`, the melting point fell in the range of 86 to 88 °C.

Regarding `COC(=O)C1=C(C)NC(C)=C(C(=O)OCCc2ccc(O)cc2)C1c1cccc([N+](=O)[O-])c1` (stereo unspecified), the melting point was 107 to 109 °C.

With `CC1(C)CC(=C2CC(C)(C)NC(C)(C)C2)CC(C)(C)N1`, the melting point lay within 144 to 145 °C.

In the case of `COC(=O)c1ccc(Br)c(C=O)c1`, the melting point lay within 71 to 74 °C.

For the compound `CC(C)(CO)c1cc(NC(=O)C(C)(C)S(=O)(=O)CCC(F)(F)F)on1`, the melting point lay in the range of 162 to 163 °C.

Regarding `OCc1cnn2ccc3c(c12)CCO3`, the melting point was 152 to 154 °C.

Consider `Cc1cn(-c2ccc(C(=O)N3Cc4cccn4Cc4ccccc43)cc2)cn1`, for which the melting point fell in the range of 140 to 145 °C.

`O=[N+]([O-])c1ccc(O)c(CO)c1` had a melting point of 112 to 114 °C.

Compound `CN1CCCCC(C2=CC(=O)CCC2)C1=O` (stereo unspecified) had a melting point of 109 to 110 °C.

As for `CCN1CC(N(CCN2CCCC2)S(=O)(=O)c2ccc(Nc3nccc(Nc4ccc(F)c(C)c4)n3)cc2)C1`, the melting point was 195 °C.

`O=c1nc(-c2ccccc2)c2cc([N+](=O)[O-])ccc2n1Cc1ccccn1`: the melting point was in the range of 175 to 176 °C.

As for `C#CCc1ccc2onc3c2c1OCC=N3`, the melting point was 104 to 106 °C.

As to `CC(=O)NC[C@H]1CN(c2ccc(-n3nccc3-c3ccc(F)cc3)c(F)c2)C(=O)O1`, the melting point lay within 111 to 113 °C.

`CN(C)CC1(C2(O)CCCCC2)Cc2cc3c(cc21)N(C)CC3` (stereo unspecified) registered a melting point of 121 to 124 °C.

Turning to `COc1c(O)cnc(C)c1C`, the melting point was in the range of 274 to 276 °C.

Consider `COc1ccc(-c2ccncc2OC2SCC(O)C(O)C2O)cc1` (stereo unspecified), for which the melting point is 228 °C.

The compound `N#Cc1cc([N+](=O)[O-])ccc1-c1ccccc1` had a melting point of 111 to 115 °C.

Regarding `CC(C)(C)NC(=O)CN1C(=O)C(N)CC(c2ccc(Cl)c(Cl)c2)c2ccccc21` (stereo unspecified), the melting point lay in the range of 140 to 150 °C.

Compound `CCC(=O)NCCC1CCc2cc(F)c(O)cc21` (stereo unspecified) returned a melting point of 93 to 96 °C.

In the case of `CCOC(=O)Nc1nc(-c2ccccc2)c(-c2nc3ccccc3c(=O)n2-c2ccccc2Cl)s1`, the melting point fell in the range of 236 to 238 °C.

For `CSc1nc(O)nc(-c2ccncc2)n1`, the melting point lay in the range of 270 to 272 °C.

In the case of `Cc1c(C(=O)N(CC(=O)O)c2ccc(OCC(C)(C)C)c(C#N)c2)cnn1-c1ccc(F)cc1`, the melting point fell in the range of 105 to 110 °C.

Consider `Clc1ccc(Cn2ccc3cc(OCc4ccncc4)ccc32)cc1`, for which the melting point lay within 105 to 107 °C.

In turn, `CC(=O)Oc1c(C)c(C)c2c(c1C)CCC(C)(CCBr)O2` (stereo unspecified) gave a melting point of 102 to 103 °C.

Regarding `CC(C)CCCC(C)C1CCC2C3CC=C4CC(OC(=O)C(C)O)CCC4(C)C3CCC12C` (stereo unspecified), the melting point lay within 120 to 122 °C.

With `CSc1nc(N)c(C=O)s1`, the melting point was 159 to 162 °C.

In turn, `CS(=O)(=O)c1ccc(-c2cnn(-c3ccc(F)c(F)c3)c(=O)c2-c2cccs2)cc1` gave a melting point of 189 to 191 °C.

Turning to `NCCCc1csc(N=C2NCCCN2)n1`, the melting point came to 116 °C.

The compound `Cc1noc(NS(=O)(=O)c2ccccc2N)c1C` yielded a melting point of 116 to 118 °C.

Consider `Cc1ccccc1-c1c(C(=O)O)c(=O)n(C)c2cc3c(cc12)CCC3`, for which the melting point is 231 to 232 °C.

In turn, `COc1ccc2cc(CC(=O)N3CC=C(c4cccc(C(F)(F)F)c4)CC3)ccc2c1` displayed a melting point of 102 to 105 °C.

The compound `COC(=O)CC(=O)C1CCC2C3CCC4CC(O)CCC4(C)C3C(=O)CC12C` (stereo unspecified) registered a melting point of 150 to 152 °C.

Consider `O=C1OC(c2ccccc2)N=C1CCCNC(=O)c1ccccc1` (stereo unspecified), for which the melting point fell in the range of 135 to 138 °C.

`O=C(O)CCc1ccc(CCNS(=O)(=O)c2ccc(Cl)cc2)s1` registered a melting point of 127 to 130 °C.

The compound `CCCn1c(N)c(N=Cc2ccc(OCC(=O)O)cc2)c(=O)n(CCC)c1=O` showed a melting point of 179 to 180 °C.

For the compound `Cc1nnsc1C(=O)c1[nH]c2ccc(Cl)cc2c1CC(=O)O`, the melting point was 229 to 230 °C.

`CCc1c[nH]c2c3c(ccc12)OCC3`: the melting point was in the range of 91 to 92.5 °C.

On to `Cc1cn2c(nc1=O)CCC2`, for which the melting point was 82 °C.

In turn, `O=C1NCCNN1c1cc(C(F)(F)F)cc(Cl)n1` showed a melting point of 191 to 192 °C.

As for `COC(=O)C(NS(=O)(=O)c1ccc(-c2ccc(NC(=O)c3oc4cccc(C(C)=O)c4c3C)cc2)cc1)C(C)C` (stereo unspecified), the melting point was 197 to 199 °C.

Consider `O=C(O)c1ccc(N2CCN(c3ccncc3)CC2)cc1`, for which the melting point is > 300 °C.

Regarding `CCOC(=O)N1CCN(c2nc(NC(C)=O)ccc2F)CC1`, the melting point was 132 to 133 °C.

`CC12C=CC(=O)C(N=C=S)=C1C=CC1C2CCC2(C)C(=O)CCC12` (stereo unspecified) had a melting point of 146 to 166 °C.

Consider `CON1CCC(C#N)(NO)CC1`, for which the melting point fell in the range of 130 to 131 °C.

Consider `C[C@]1(COc2ccc(N3CCN(Cc4ccc(C(F)(F)F)cc4)CC3)cc2)Cn2cc([N+](=O)[O-])nc2O1`, for which the melting point was in the range of 206 to 207 °C.

Regarding `COc1ccc(C(=O)Cc2ccccc2)c(O)c1`, the melting point fell in the range of 87 to 88 °C.

The compound `CCCCCCCC(=O)N(C)Cc1cccc(-c2ccc(CC3SC(=O)NC3=O)cc2C)c1` (stereo unspecified) yielded a melting point of 130 °C.

`CCc1ccc(Nc2c(-c3nnc(NCCNC)o3)ccc(F)c2F)c(F)c1` gave a melting point of 154 to 157 °C.

For the compound `CC(CO)Nc1cc(Oc2nn(C)c(C(F)(F)F)c2Cl)ccc1[N+](=O)[O-]` (stereo unspecified), the melting point fell in the range of 118 to 120 °C.

As to `COc1ccc(-c2cnc3cc4cnn(C(C)=O)c4cc3n2)cc1F`, the melting point was in the range of 261 to 265 °C.

On to `Cc1cccc(C(=O)O)c1NC(=O)/C=C1\SCC(=O)N1C`, for which the melting point is 187 °C.

The compound `CCOC1(OCC)CCc2c(ccc3c(=O)c4cc(C(=O)O)ccc4oc23)O1` displayed a melting point of 191 to 193 °C.

`COc1cc2c(Nc3ccc(Cl)cc3F)ncnc2cc1OCCn1ccccc1=O` returned a melting point of 209 to 211 °C.

With `CCN(C)c1nsc(NC(=O)NC)c1C(N)=O`, the melting point lay within 165 to 168 °C.

These data come from a melting point compilation (Tetko et al.; mined from patent text by program, amines drawn as free bases though some values may be those of a salt).
